The values that follow come from US20130331345A1, “PUERARIN HYDRATES, PREPARATION METHODS AND USES THEREOF” (priority 2010, published 2013).

Series [1] in a line: Hygroscopicity test according to the Pharmacopoeia of the People's Republic of China. The format is physicochemical. Conditions: 25° C., relative humidity 75%, 48 h. The method, then: (§1) The sample of the puerarin hydrate above (prepared by method of Example 1) and anhydrous puerarin (anhydrous puerarin was prepared by: drying the hydrate as prepared in Example 1 at 90-105° C. in the presence of phosphorus pentoxide under vacuum for 24-72 hours or more to obtain an anhydrous puerarin, and the water content of anhydrous puerarin was usually lower than 1.0% as measured by Karl Fisher method) were sealed in penicillin bottles to perform accelerated stability test (chromatography conditions: chromatography column: C18 (150 mm×4.6 mm, 5 μm); mobile phase: 0.1% citric acid solution-methanol (75:25); flow rate: 1 ml/min; temperature: room temperature; detection wavelength: 250 nm). […] Hygroscopicity test was performed according to the Pharmacopoeia of the People's Republic of China: about 5 g of anhydrous puerarin and the crystalline hydrate of the present invention were taken, placed in dry watch glasses with constant weight, weighed precisely. Samples were taken separately at 0 h and 48 h of the test at 25° C. and relative humidity of 75%, and hygroscopicity weight gain percentages were calculated.

The nature of series [2]: Accelerated stability test (40° C., RH75%), sealed in penicillin bottles. Type of series: physicochemical. Conditions: for Marked content (%) / Property / Related substance (%): accelerated, 40° C. The method, then:
as §1

The nature of series [3]: Sticking in direct tableting of powder. The format is physicochemical. As to conditions: tableting 200 mg of powder; printed '1-3 times or higher'. The method, then:
In addition, the puerarin hydrate of the present invention overcomes the drawback of deliquescent property of anhydrous puerarin, so that it is not necessary to isolate air to prevent adhesion, and has good sliding property, and the manipuility for manufacturing preparations is improved. Anhydrous puerarin has sticking phenomenon when its powder is used for direct tableting. When tableting 200 mg of powder, anhydrous puerarin has a sticking amount 1-3 times or higher than that of puerarin monohydrate.

In series [4] the test system is chronic ocular hypertension. Kind of series: Effects on chronic ocular hypertension of rabbits (dexamethasone model). The format is in vivo. As to conditions: within 24 hours, puerarin hydrate 1% (W/V), betaxolol 0.5% (W/V). The method, then:
Chronic Ocular Hypertension Models: 32 rabbits, half male and half female, were subjected to sub-conjunctive injection with 0.5 mg of dexamethasone under corneal limbus, once every other day, for consecutive 3 weeks, to obtain chronic ocular hypertension models, then randomly divided into physiological saline group, betaxolol group [0.5% (W/V)], puerarin hydrate group [1% (W/V)]. The maximum decrease of intraocular pressure was measured within 24 hours.

Series [5] concerns the target T1, β2 receptor (Cavia porcellus, UniProt Q8K4Z4).
T1 construct: trachea strip β2 receptor of guinea pigs; from tissue; host or cells: guinea pig trachea strip
As to conditions: trachea strip of guinea pigs; cited from earlier work.

The test system of series [6] is blood pressure. Conditions: anesthetized dogs, injection; cited from earlier work.
The subject of series [7] is intraocular pressure. As to conditions: ocular hypertension rabbit models induced by dexamethasone; cited from earlier work.
For series [8], the target named is T2, β1 receptor (Cavia porcellus, UniProt H0W3H1).
T2 construct: ex vivo atrial muscle β1 receptor of guinea pigs; from tissue; host or cells: guinea pig atrial muscle, ex vivo
Conditions: ex vivo atrial muscle of guinea pigs; cited from earlier work.

Series [9] deals with ethanol intake. As to conditions: rats, intraperitoneal injection; cited from earlier work.
For series [10], the system named is sudden deafness. As to conditions: injection, within 2 weeks after administration; cited from earlier work.
For series [11], the system named is blood pressure and heart rate. As to conditions: conscious spontaneously hypertensive rats, intraperitoneal injection; cited from earlier work.
The subject of series [12] is benzodiazepine receptor. As to conditions: cited from earlier work.
Series [13] relates to β receptor. As to conditions: cited from earlier work.
For series [14], the target named is T3, ACE (Rattus norvegicus, UniProt P47820).
T3 construct: from tissue; host or cells: blood serum of Wistar rats
T3 sequence (P47820 36-1313): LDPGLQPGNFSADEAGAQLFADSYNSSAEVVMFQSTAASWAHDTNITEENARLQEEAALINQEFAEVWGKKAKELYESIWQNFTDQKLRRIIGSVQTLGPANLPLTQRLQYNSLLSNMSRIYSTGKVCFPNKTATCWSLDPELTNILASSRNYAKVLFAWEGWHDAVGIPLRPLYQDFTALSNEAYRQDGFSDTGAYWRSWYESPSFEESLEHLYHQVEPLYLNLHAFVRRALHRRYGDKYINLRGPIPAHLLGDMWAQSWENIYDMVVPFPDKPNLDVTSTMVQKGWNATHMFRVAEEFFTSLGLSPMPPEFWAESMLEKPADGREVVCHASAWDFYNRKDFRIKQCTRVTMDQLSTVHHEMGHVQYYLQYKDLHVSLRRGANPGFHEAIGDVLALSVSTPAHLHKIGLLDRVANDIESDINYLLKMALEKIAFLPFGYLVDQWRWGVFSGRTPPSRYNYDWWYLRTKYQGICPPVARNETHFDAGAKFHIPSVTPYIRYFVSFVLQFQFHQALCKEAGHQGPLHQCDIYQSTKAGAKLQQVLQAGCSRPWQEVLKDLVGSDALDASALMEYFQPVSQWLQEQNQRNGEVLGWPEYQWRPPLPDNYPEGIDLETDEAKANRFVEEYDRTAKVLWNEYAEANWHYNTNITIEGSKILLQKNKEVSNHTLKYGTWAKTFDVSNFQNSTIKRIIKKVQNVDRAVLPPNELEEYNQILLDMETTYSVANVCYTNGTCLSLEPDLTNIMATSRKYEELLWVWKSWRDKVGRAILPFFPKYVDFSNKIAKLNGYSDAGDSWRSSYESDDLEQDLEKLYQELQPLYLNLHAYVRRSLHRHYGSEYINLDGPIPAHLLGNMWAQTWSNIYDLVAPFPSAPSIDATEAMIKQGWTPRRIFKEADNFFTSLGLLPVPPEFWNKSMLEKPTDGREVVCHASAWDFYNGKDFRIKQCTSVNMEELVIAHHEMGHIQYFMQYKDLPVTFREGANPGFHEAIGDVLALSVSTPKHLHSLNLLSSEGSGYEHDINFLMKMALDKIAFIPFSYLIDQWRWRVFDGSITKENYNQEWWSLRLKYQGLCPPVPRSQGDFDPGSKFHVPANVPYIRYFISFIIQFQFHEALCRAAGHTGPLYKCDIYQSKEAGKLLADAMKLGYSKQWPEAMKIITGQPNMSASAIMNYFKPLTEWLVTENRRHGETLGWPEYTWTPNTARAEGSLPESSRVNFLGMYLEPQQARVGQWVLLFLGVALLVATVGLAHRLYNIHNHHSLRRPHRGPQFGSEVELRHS
The experiment in a line: Effects on inhibiting ACE activity (rat blood serum after intraperitoneal injection). As to conditions: rats, 200 mg/kg intraperitoneal. The format is in vivo, Wistar rats. The method, then:
24 Wistar rats, 280-300 g, were randomly divided into 3 groups, 8 rats per group, one group was control group, other two groups were separately 100 mg/kg, 200 mg/kg dose groups (which was added with cosolvent to form an injectable solution), subjected to intraperitoneal injection, the control group was administered with physiological saline. 60 min after administration, the rats were anesthetized with 1% pentobarbital sodium, subjected to thoracotomy and blood sample was taken from heart, the blood sample stood at room temperature for 30 min, centrifuged under 3500 r/min at low temperature for 10 min, the supernatant was taken and stored at about −65° C., for test. Measurement of ACE activity: referring to document [WANG, Fumin, et al, Chinese Journal of Laboratory Medicine, 1983, 6(3):145-151], the results were subjected to statistical treatment: the results were expressed in x±S, and data were subjected to analysis of variance and t-test.

T2 sequence (H0W3H1 1-470): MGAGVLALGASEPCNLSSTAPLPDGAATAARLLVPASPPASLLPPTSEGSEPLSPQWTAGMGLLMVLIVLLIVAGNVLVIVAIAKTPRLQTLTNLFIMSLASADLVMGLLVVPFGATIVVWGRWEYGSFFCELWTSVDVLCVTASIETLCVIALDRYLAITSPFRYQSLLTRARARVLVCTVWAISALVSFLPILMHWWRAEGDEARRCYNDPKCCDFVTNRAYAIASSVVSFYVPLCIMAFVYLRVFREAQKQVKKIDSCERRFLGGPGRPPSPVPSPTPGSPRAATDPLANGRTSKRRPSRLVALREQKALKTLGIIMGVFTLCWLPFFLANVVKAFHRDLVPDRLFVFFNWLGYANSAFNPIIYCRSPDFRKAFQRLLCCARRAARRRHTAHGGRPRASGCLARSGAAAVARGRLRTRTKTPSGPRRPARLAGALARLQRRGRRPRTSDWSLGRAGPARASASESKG
T1 sequence (Q8K4Z4 whole entry): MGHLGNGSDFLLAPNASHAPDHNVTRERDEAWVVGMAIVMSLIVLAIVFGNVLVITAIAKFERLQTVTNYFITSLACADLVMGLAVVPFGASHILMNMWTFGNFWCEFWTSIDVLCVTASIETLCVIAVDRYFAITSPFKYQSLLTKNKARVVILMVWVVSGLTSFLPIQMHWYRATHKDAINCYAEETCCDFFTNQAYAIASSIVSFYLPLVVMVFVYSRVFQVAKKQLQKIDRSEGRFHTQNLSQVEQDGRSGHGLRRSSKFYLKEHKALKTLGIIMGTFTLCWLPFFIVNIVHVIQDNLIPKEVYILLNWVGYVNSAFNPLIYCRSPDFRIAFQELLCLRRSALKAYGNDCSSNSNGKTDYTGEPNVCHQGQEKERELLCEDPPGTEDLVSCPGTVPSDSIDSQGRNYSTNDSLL

As to `O=c1c(-c2ccc(O)cc2)coc2c([C@@H]3O[C@H](CO)[C@@H](O)[C@H](O)[C@H]3O)c(O)ccc12` [Anhydrous puerarin, reference compound], in series [1], the “Hygroscopicity compared with the hydrate of the present invention” value is listed as “much higher” and the “In comparison with 0 h, weight gain, %” value was 4.26%. Also, the “Increase of related substance, 6 month results compared to 0 month results” value in series [2] (accelerated test 40° C., compared with puerarin monohydrate) is reported as “higher increase”. Further, in series [3], the “Sticking amount relative to puerarin monohydrate” value was 1-3 times.

In the case of `CC(C)NCC(O)COc1ccc(CCOCC2CC2)cc1` (stereo not shown) [Betaxolol, reference compound], in series [4], the “Maximum decrease of intraocular pressure (mmHg)” value (from here on “Maximum decrease”) amounted to 1.9 mmHg.

As to `O=c1c(-c2ccc(O)cc2)coc2c([C@@H]3O[C@H](CO)[C@@H](O)[C@H](O)[C@H]3O)c(O)ccc12` [Puerarin, 8-β-D-glucopyranosyl-4′,7-dihydroxylisoflavone], the “Action on β2 receptor” value in [5] was “relatively great concentration is required”. Besides, in series [6], the Blood pressure result was “rapid dose-dependent decrease”. In [7], the Intraocular pressure entry is given as “reduce”. In addition, the “Action on β1 receptor” value in [8] was “significant antagonistic action”. Besides, the Ethanol intake result in series [9] is reported as “significantly reduce”. Also, the “Patients with good state of nail fold microcirculation and improved audition” value in series [10] is listed as 70%. For the same compound, in [11], the “Blood pressure and heart rate” value is “significantly reduce”. In addition, in series [12], the “Activity at benzodiazepine receptor” value is “antagonist or partial agonist”. Besides, the “Effect on activation function of adrenalin on adenylate cyclase” value in series [13] is on record as “completely inhibit”.

On to `O=c1c(-c2ccc(O)cc2)coc2c([C@@H]3O[C@H](CO)[C@@H](O)[C@H](O)[C@H]3O)c(O)ccc12` [Sample 2, puerarin monohydrate], for which, in series [4] (monohydrate), the “Maximum decrease” value was 2.4 mmHg.

What is called inhibition is the relative decrease from the control value, in per cent. For the compound `O=c1c(-c2ccc(O)cc2)coc2c([C@@H]3O[C@H](CO)[C@@H](O)[C@H](O)[C@H]3O)c(O)ccc12` [Sample 3, puerarin monohydrate], in [14] (rat, ip, vs control group, read-out: inhibition rate (%)), the inhibition at 200 mg/kg came out at 51%. For the same compound, the “ACE (IU)” value in series [14] (blood taken 60 min after administration) worked out at 26.7 ± 6.35 IU.

`O.O=c1c(-c2ccc(O)cc2)coc2c([C@@H]3O[C@H](CO)[C@@H](O)[C@H](O)[C@H]3O)c(O)ccc12.O=c1c(-c2ccc(O)cc2)coc2c([C@@H]3O[C@H](CO)[C@@H](O)[C@H](O)[C@H]3O)c(O)ccc12` [Sample 5, puerarin 0.5 hydrate]: the “In comparison with 0 h, weight gain, %” value in series [1] worked out at 1.51%. For the same compound, the “Maximum decrease” value in [4] is listed as 2.5 mmHg. For the same compound, the “Marked content (%)” value is listed as 99.1% in series [2] (sampling time 0 month); 99.2% in [2] (sampling time 1 month); 99.2% in series [2] (sampling time 2 month); 99.0% in [2] (sampling time 3 month); 98.9% in series [2] (sampling time 6 month). Also, the Property entry in [2] (sampling time 0 month), in [2] (sampling time 1 month), in [2] (sampling time 2 month), in [2] (sampling time 3 month) and in series [2] (sampling time 6 month) was “off-white powder” throughout. In addition, the “Related substance (%)” value in [2] (sampling time 0 month), in [2] (sampling time 1 month), in [2] (sampling time 2 month), in series [2] (sampling time 3 month) and in series [2] (sampling time 6 month) was less than 2% in each case.
